Data from patent EP4227307A1 (Genzyme Corporation, priority 2022, dated 2023).
Structures can show the parent of a compound that is named as a salt.

target: T1, human recombinant 6His-Nterm SHP2 full-length (Thr2-Arg593) (Homo sapiens, UniProt Q06124); assay: SHP2 Phosphatase Assay (DiFMUP fluorescence); format: biochemical; conditions: SHP2 0.2 nM pre-incubated with 100 nM bi-phosphorylated activating peptide; compound 1000-0.05 nM, 30 min pre-incubation; DiFMUP 20 µM, 45 min, room temperature; 10-concentration dose-response
T1 construct: 6His-Nterm SHP2 full-length (Thr2-Arg593, R&D system); 6His (N); purchased R&D system
T1 sequence (Q06124 2-593): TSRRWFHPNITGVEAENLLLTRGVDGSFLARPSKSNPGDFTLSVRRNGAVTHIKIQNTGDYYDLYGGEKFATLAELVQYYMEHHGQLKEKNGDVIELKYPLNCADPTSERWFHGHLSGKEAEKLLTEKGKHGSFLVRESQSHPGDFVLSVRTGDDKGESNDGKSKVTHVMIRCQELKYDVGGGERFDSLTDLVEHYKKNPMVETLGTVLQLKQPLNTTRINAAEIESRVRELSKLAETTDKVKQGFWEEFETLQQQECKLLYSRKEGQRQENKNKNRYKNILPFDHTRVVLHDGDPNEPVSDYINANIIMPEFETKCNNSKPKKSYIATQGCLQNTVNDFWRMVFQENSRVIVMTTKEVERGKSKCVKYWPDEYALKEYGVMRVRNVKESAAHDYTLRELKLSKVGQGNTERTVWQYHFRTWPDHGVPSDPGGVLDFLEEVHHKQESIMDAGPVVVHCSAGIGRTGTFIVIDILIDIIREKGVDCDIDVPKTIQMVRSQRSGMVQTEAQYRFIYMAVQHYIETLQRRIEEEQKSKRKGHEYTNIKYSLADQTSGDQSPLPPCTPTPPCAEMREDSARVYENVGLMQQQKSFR
How it was run: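 SHP2 (0.2 nM) preactivated ≥10 min with 100 nM bis-phosphorylated peptide, then 30 min with compound (10 concentrations, 1000–0.05 nM) at room temperature, pH 7.2 HEPES buffer with DTT. DiFMUP (20 µM, added solution) reacted 45 min, pervanadate-stopped; fluorescence 350/450 nm. IC50 by 4-parameter logistic fit.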

Row | Compound | IC50
1 | Cc1nc(N2CCC3(CC2)Cc2cc(F)ccc2[C@H]3N)c2ccnn2c1-c1cnn(C)c1C [Compound 101, (1S)-1'-[7-(1,5-dimethylpyrazol-4-yl)-6-methyl-pyrazolo[1,5-a]pyrazin-4-yl]-5-fluoro-spiro[indane-2,4'-piperidine]-1-amine hydrochloride] | 0.015 µM
2 | Cc1nc(N2CCC3(CC2)Cc2ncccc2[C@H]3N)c2ccnn2c1-c1ccnc(N2CCOCC2)c1F [Compound 198, (5S)-1'-[7-(3-fluoro-2-morpholino-4-pyridyl)-6-methyl-pyrazolo[1,5-a]pyrazin-4-yl]spiro[5,7-dihydrocyclopenta[b]pyridine-6,4'-piperidine]-5-amine] | 0.437 µM
3 | Cc1nc(N2CCC3(CC2)Cc2c(F)cccc2[C@H]3N)c2ccnn2c1-c1cccc(F)c1F [Compound 94, (1S)-1'-[7-(2,3-difluorophenyl)-6-methyl-pyrazolo[1,5-a]pyrazin-4-yl]-4-fluoro-spiro[indane-2,4'-piperidine]-1-amine formate] | 0.146 µM
4 | Cc1nccc(-c2c(C)nc(N3CCC4(CC3)Cc3ccncc3[C@H]4N)c3ccnn23)c1F [Compound 140, (7S)-1'-[7-(3-fluoro-2-methyl-4-pyridyl)-6-methyl-pyrazolo[1,5-a]pyrazin-4-yl]spiro[5,7-dihydrocyclopenta[c]pyridine-6,4'-piperidine]-7-amine] | 0.007 µM
5 | COc1ccc(F)c(-c2c(C)nc(N3CCC4(CC3)Cc3ncccc3[C@H]4N)c3ccnn23)c1 [Compound 31, (5S)-1'-[7-(2-fluoro-5-methoxy-phenyl)-6-methyl-pyrazolo[1,5-a]pyrazin-4-yl]spiro[5,7-dihydrocyclopenta[b]pyridine-6,4'-piperidine]-5-amine] | 0.013 µM
6 | Cc1nc(N2CCC3(CC2)Cc2ncccc2[C@H]3N)c2ccnn2c1-c1ccccc1 [Compound 39, (5S)-1'-(6-methyl-7-phenyl-pyrazolo[1,5-a]pyrazin-4-yl)spiro[5,7-dihydrocyclopenta[b]pyridine-6,4'-piperidine]-5-amine] | 0.005 µM
7 | COc1cccc(-c2c(C)nc(N3CCC4(CC3)Cc3ncccc3[C@H]4N)c3ccnn23)c1F [Compound 4, (5S)-1'-[7-(2-fluoro-3-methoxy-phenyl)-6-methyl-pyrazolo [1 ,5-a]pyrazin-4-yl]spiro[5,7-dihydrocyclopenta[b]pyridine-6,4'-piperidine] -5-amine] | 0.007 µM
8 | COc1cnc2c(c1)[C@@H](N)C1(CCN(c3nc(C)c(-c4cccc(F)c4F)n4nccc34)CC1)C2 [Compound 24, (5S)-1'-[7-(2,3-difluorophenyl)-6-methyl-pyrazolo[1,5-a]pyrazin-4-yl]-3-methoxy-spiro[5,7-dihydrocyclopenta[b]pyridine-6,4'-piperidine]-5-amine] | 0.011 µM
9 | Cc1ccc2c(n1)CC1(CCN(c3nc(C)c(-c4ccccc4)n4nccc34)CC1)[C@@H]2N [Compound 107, (5 S)-2-methyl-1'-(6-methyl-7-phenyl-pyrazolo[1,5-a]pyrazin-4-yl)spiro[5,7-dihydrocyclopenta[b]pyridine-6,4'-piperidine]-5-amine hydrochloride] | 0.012 µM
10 | COc1ccc2c(c1)[C@@H](N)C1(CCN(c3nc(C)c(-c4cc(C)nn4C)n4nccc34)CC1)C2 [Compound 123, (1S)-1'-[7-(2,5-dimethylpyrazol-3-yl)-6-methyl-pyrazolo[1,5-a]pyrazin-4-yl]-6-methoxy-spiro[indane-2,4'-piperidine]-1-amine hydrochloride] | 0.009 µM
11 | Cc1nc(N2CCC3(CC2)Cc2ncccc2[C@H]3N)c2ccnn2c1-c1ccnc(CO)c1Cl [Compound 207, [4-[4-[(5S)-5-aminospiro[5,7-dihydrocyclopenta[b]pyridine-6,4'-pipetidine]-1'-yl]-6-methyl-pyrazolo[1,5-a]pyrazin-7-yl]-3-chloro-2-pyridyl]methanol] | 0.016 µM
12 | Cc1nc(N2CCC3(CC2)Cc2ncccc2[C@H]3N)c2ccnn2c1-c1ccc2ncccc2c1F [Compound 30, (5S)-1'-[7-(5-fluoro-6-quinolyl)-6-methyl-pyrazolo [1 ,5-a]pyrazin-4-yl]spiro[5,7-dihydrocyclopenta[b]pyridine-6,4'-piperidine] -5-amine formate] | 0.017 µM
13 | Cc1cc2c(cn1)CC1(CCN(c3nc(C)c(-c4ccnc(C)c4F)n4nccc34)CC1)[C@@H]2N [Compound 116, (5S)-1'-[7-(3-fluoro-2-methyl-4-pyridyl)-6-methyl-pyrazolo[1,5-a]pyrazin-4-yl]-3-methyl-spiro[5,7-dihydrocyclopenta[c]pyridine-6,4'-piperidine]-5-amine] | 0.008 µM
14 | Cc1nc(N2CCC3(CC2)Cc2ncccc2[C@H]3N)c2ccnn2c1C1=CCOCC1 [Compound 196, (5S)-1'-[7-(3,6-dihydro-2H-pyran-4-yl)-6-methyl-pyrazolo[1,5-a]pyrazin-4-yl]spiro[5,7-dihydrocyclopenta[b]pyridine-6,4'-piperidine]-5-amine] | 0.083 µM
15 | Cc1nc2c(s1)CC1(CCN(c3nc(C)c(-c4ccccc4F)n4nccc34)CC1)[C@@H]2N [Compound 104, (4S)-1'-[7-(2-fluorophenyl)-6-methyl-pyrazolo[1,5-a]pyrazin-4-yl]-2-methyl-spiro[4,6-dihydrocyclopenta[d]thiazole-5,4'-piperidine]-4-amine hydrochloride] | 0.009 µM
16 | Cc1nc(N2CCC3(CC2)Cc2ncccc2[C@H]3N)c2ccnn2c1-c1cccc(CO)c1 [Compound 191, [3-[6-methyl-4-[(5S)-5-aminospiro [5,7-dihydrocyclopenta[b]pyridine-6,4'-piperidine]-1'-yl]pyrazolo[1,5-a]pyrazin-7-yl]phenyl]methanol] | 0.016 µM
17 | Cc1nc(N2CCC3(CC2)Cc2ncccc2[C@H]3N)c2cc(CO)nn2c1-c1cccc(F)c1F [Compound 37, [4-[(5S)-5-aminospiro[5,7-dihydrocyclopenta[b]pyridine-6,4'-piperidine]-1'-yl]-7-(2,3-difluorophenyl)-6-methyl-pyrazolo[1,5-a]pyrazin-2-yl]methanol] | 0.009 µM
18 | Cc1nccc(-c2c(C)nc(N3CCC4(CC3)Cc3ncc(F)cc3[C@H]4N)c3ccnn23)c1Cl [Compound 28, (5S)-1'-[7-(3-chloro-2-methyl-4-pyridyl)-6-methyl-pyrazolo[1,5-a]pyrazin-4-yl]-3-fluoro-spiro[5,7-dihydrocyclopenta[b]pyridine-6,4'-piperidine] -5-amine] | 0.015 µM
19 | COc1cc(-c2c(C)nc(N3CCC4(CC3)Cc3ncccc3[C@H]4N)c3ccnn23)c(F)cn1 [Compound 76, (5S)-1'-[7-(5-fluoro-2-methoxy-4-pyridyl)-6-methyl-pyrazolo [1,5-a]pyrazin-4-yl]spiro[5,7-dihydrocyclopenta[b]pyridine-6,4'-piperidine] -5-amine hydrochloride] | 0.072 µM
20 | Cc1nc(N2CCC3(CC2)Cc2scnc2[C@H]3N)c2ccnn2c1-c1ccccc1 [Compound 68, (4S)-1'-(6-methyl-7-phenyl-pyrazolo[1,5-a]pyrazin-4-yl)spiro[4,6-dihydrocyclopenta[d]thiazole-5,4'-piperidine]-4-amine hydrochloride] | 0.018 µM
21 | COCc1cnn2c(-c3ccccc3F)c(C)nc(N3CCC4(CC3)Cc3ncccc3[C@H]4N)c12 [Compound 225, (5S)-1'-[7-(2-fluorophenyl)-3-(methoxymethyl)-6-methyl-pyrazolo[1,5-a]pyrazin-4-yl]spiro[5,7-dihydrocyclopenta[b]pyridine-6,4'-piperidine]-5-amine] | > 1 µM
22 | Cc1nccc(-c2c(C)nc(N3CCC4(CC3)Cc3scnc3[C@H]4N)c3ccnn23)c1Cl [Compound 69, (4S)-1'-[7-(3-chloro-2-methyl-4-pyridyl)-6-methyl-pyrazolo[1,5-a]pyrazin-4-yl]spiro[4,6-dihydrocyclopenta[d]thiazole-5,4'-piperidine]-4-amine hydrochloride] | 0.01 µM
23 | Cc1nn(C)c(C)c1-c1c(C)nc(N2CCC3(CC2)Cc2ncccc2[C@H]3N)c2ccnn12 [Compound 33, (5S)-1'-[6-methyl-7-(1,3,5-trimethylpyrazol-4-yl)pyrazolo[1,5-a]pyrazin-4-yl]spiro[5,7-dihydrocyclopenta[b]pyridine-6,4'-piperidine]-5-amine] | > 1 µM
24 | COc1ccc(-c2c(C)nc(N3CCC4(CC3)Cc3ncccc3[C@H]4N)c3ccnn23)c(F)c1F [Compound 175, (5 S)-1'-[7-(2,3-difluoro-4-methoxy-phenyl)-6-methyl-pyrazolo[1,5-a]pyrazin-4-yl]spiro[5,7-dihydrocyclopenta[b]pyridine-6,4'-piperidine]-5-amine] | 0.004 µM
25 | Cc1nccc(-c2c(C)nc(N3CCC4(CC3)Nc3ccccc3[C@H]4N)c3ccnn23)c1Cl [Compound 154, (3R)-1'-[7-(3-chloro-2-methyl-4-pyridyl)-6-methyl-pyrazolo[1,5-a]pyrazin-4-yl]spiro[indoline-2,4'-piperidine]-3-amine hydrochloride] | 0.004 µM
